Results: the supplement of paper PMC10949913

Experiments:
Experiment in all cases: area under concentration-response curve (viability) (AUC (a.u.)); higher = less active
Details in all cases: 48 h
CU-ACC2 = system: CU-ACC2
How it was run: (§1)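 Three adrenocortical carcinoma cell lines were plated in 1,536-well plates at 500–1,000 cells/well in 5 µL medium, and 23 nL of each library compound was added at 11 concentrations. After 48 h, CellTiter-Glo was applied for 15 minutes at room temperature before luminescence was read. Each plate's signals were normalised to vehicle and empty-well controls. AC50 and area under the curve were taken from fitted concentration-response curves, with only inhibitory or non-responding curve classes retained.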

NCI-H295R = system: NCI-H295R
How it was run: as §1

CU-ACC1 = system: CU-ACC1
How it was run: as §1

SMILES	area under concentration-response curve (CU-ACC2)	area under concentration-response curve (NCI-H295R)	area under concentration-response curve (CU-ACC1)
CN1C(=O)/C=C(/NCCN(CCO)CCCC2=CC=C(C=C2)[N+]([O-])=O)N(C)C1=O	643	586	544
CC(=O)NCCC(=O)N[C@@H](CCC(N)=O)C(=O)N[C@@H](CO)C(=O)N[C@@H](CCC(N)=O)C(=O)N[C@@H](CCC(N)=O)C(=O)N[C@H](C(=O)N[C@@H](Cc1ccccc1)C(=O)N[C@]1(C)CCCCCC/C=C\CCC[C@@](C)(C(=O)N[C@@H](CCC(N)=O)C(=O)N[C@@H](CC(N)=O)C(N)=O)NC(=O)[C@H](CC(C)C)NC(=O)[C@H](CC(C)C)NC(=O)[C@@H](CCCNC(=N)N)NC(=O)[C@H](Cc2c[nH]c3ccccc23)NC(=O)[C@H](CC(C)C)NC(=O)[C@H](CC(N)=O)NC1=O)[C@H](C)O	575	546	425
Cc1[nH]c(/C=C2\C(=O)Nc3ccc([S+](=O)([O-])Cc4c(Cl)cccc4Cl)cc32)c(C)c1C(=O)N1CCC[C@@H]1CN1CCCC1	351	376	334
Cc1noc2c1-c1ccccc1C(c1ccc(Cl)cc1)=N[C@H]2CC(N)=O	568	466	495
CCOCC(O)COc1ccc(NC(=O)CC[S+](C)C)cc1 (configuration not stated)	394	411	367
CN(C)c1ccc(-c2nc3c(N4CCN(CC(=O)Nc5nccs5)CC4)c(Cl)cnc3[nH]2)cc1	658	600	618
CCCn1c(=O)c2[nH]c(-c3cnn(Cc4cccc(C(F)(F)F)c4)c3)nc2n(CC)c1=O	633	584	509
CCCNC(=O)Nc1ccc(Oc2ncnc3cc(OC)c(OC)cc23)cc1Cl	383	400	332
C[C@H]1CN(CCN1C2=CN=C(NC/3=C/C(=C\N(C)C3=O)C4=CC=NC(=C4CO)N5CC[N]6C7=C(CC(C)(C)C7)C=C6C5=O)C=C2)C8COC8	618	560	532
CCCN[S+](=O)([O-])Nc1ncnc(OCCOc2ncc(Br)cn2)c1-c1ccc(Br)cc1	567	518	381
CCn1c(-c2nonc2N)nc2cnc(Oc3cccc(NC(=O)c4ccc(OCCN5CCOCC5)cc4)c3)cc21	547	511	494
C[C@]12CCC(=O)C(O)=C1CC[C@@H]1[C@@H]2CC[C@]2(C)C(=O)CC[C@@H]12	470	417	404
CC1(C)S[C@H]2[C@H](NC(=O)[C@@H](N)c3ccc(O)cc3)C(=O)N2[C@H]1C(=O)O	597	545	511
O=c1oc2cc(O)ccc2s1	482	503	502
CN1CCN(C(=O)c2ccc(-c3ccc4c(C=O)c(O)ccc4c3)s2)CC1	612	556	499
CC(=O)Nc1ccc(O)cc1	467	445	348
CCN1C[C@]2(OC(=O)c3ccccc3NC(C)=O)CC[C@H](OC)[C@@]34[C@@H]2C[C@@H]([C@@H]13)[C@@]1(O)C[C@H](OC)[C@H]2C[C@@H]4[C@]1(O)[C@H]2OC	499	429	416
CC[C@@H](Oc1cccc(CN(CCCOc2ccc(OC)cc2)c2nc3ccccc3o2)c1)C(=O)O	571	519	562
OCCn1cc(-c2ccc3c(c2)CC/C3=N\O)c(-c2ccncc2)n1	595	538	492
C[S+](=O)([O-])c1ccc(C(=O)Nc2ccc(Cl)c(-c3ccccn3)c2)c(Cl)c1	674	591	544
CN1CCN(CC1)C\2=C\3/C=C(/C)SC3=N/C4=CC=CC=C4N2	513	555	556
Cn1nccc1Nc1nccc(-c2cc3c(s2)C(C)(C)N(CCN2CCOCC2)C3=O)n1	589	544	528

SMILES	area under concentration-response curve (CU-ACC2)	area under concentration-response curve (NCI-H295R)	area under concentration-response curve (CU-ACC1)
Cc1noc(-c2ccc(CSCCC(=O)O)cc2)c1NC(=O)OC(C)c1ccccc1Cl (configuration not stated)	557	505	469
COc1ccc2c(OCc3nnc4ccc(-c5ccccc5)nn34)ccnc2c1	609	589	520
c1coc(CNc2ncnc3nc[nH]c23)c1	556	565	409
CNC(=O)CN1CCC(Oc2cc3c(Nc4cccc(Cl)c4F)ncnc3cc2OC)CC1	572	570	501
C=C[C@H]1CN2CCC1C[C@@H]2[C@@H](O)c1ccnc2ccccc12 (some centres not stated)	522	486	455
COCC(=O)NC/C=C/c1ccc2ncnc(Nc3ccc(Oc4ccc(C)nc4)c(C)c3)c2c1	613	552	522
CC1CCN(c2cc(N3CCN(C)CC3)ccc2NC(=O)c2cc(C#N)c[nH]2)CC1	600	544	542
COc1ccc(CCC(=O)Nc2nc3ccc(Cl)cc3s2)cc1OC	600	563	575
CC(C)(Oc1ccc(C2CC2(Cl)Cl)cc1)C(=O)O (configuration not stated)	483	526	502
CC(C)OC(=O)/C1=C/N(CC(C)(C)C2=C1[NH]C3=CC=CC=C23)C(=O)C4=CC=C(F)C(=C4)F	555	529	454
O=C(Nc1nccs1)C(c1cc(F)ccc1O)N1Cc2ccccc2C1=O (configuration not stated)	557	524	504
Cc1cn(-c2cc(NC(=O)c3ccc(C)c(Nc4nccc(-c5cccnc5)n4)c3)cc(C(F)(F)F)c2)cn1	506	417	438
COCCNCc1ccc(-c2cc3nccc(Oc4ccc(NC(=O)C5(C(=O)Nc6ccc(F)cc6)CC5)cc4F)c3s2)nc1	414	374	302
CC1=C(F)C=CC(=C1)N2C(=O)\C=C/C3=C2C4=C([NH]C=C4)N=C3	509	527	519
Cc1nc(-c2ccc(OCC(C)C)c(C#N)c2)sc1C(=O)O	544	306	478
C[C@H](NC(=O)CCC(F)(F)F)C(=O)N[C@@H]1C(=O)N(CCO)c2ncccc2-c2ccccc21	511	475	472
Cc1[nH]c(/C=C2\C(=O)Nc3ccccc32)c(C)c1CCC(=O)O	535	480	496
CC(C)C(=O)OCC(=O)[C@@]12O[C@@H](O[C@@H]1C[C@H]3[C@@H]4CC\C5=C\C(=O)\C=C/[C@]5(C)[C@H]4[C@@H](O)C[C@]23C)C6CCCCC6	606	531	523
CCOC1=CC=C(C=C1)N2C(=O)C3=CC=CN=C3/N=C2/[C@@H](C)N(CC4=CC=CN=C4)C(=O)CC5=CC=C(F)C(=C5)C(F)(F)F	606	569	516
CCN1CCN(c2ccc(Nc3cc(N(C)C(=O)Nc4c(Cl)c(OC)cc(OC)c4Cl)ncn3)cc2)CC1	580	479	511
CCN(CCCOc1ccc2c(Nc3cc(CC(=O)Nc4cccc(F)c4)[nH]n3)ncnc2c1)CCOP(=O)(O)O	579	495	471
CN(N=O)C(=O)N[C@@H]1[C@@H](O)[C@H](O)[C@@H](CO)O[C@@H]1O	590	548	502
